Experimental findings from paper PMC5539197, “CD14 is critical for TLR2-mediated M1 macrophage activation triggered by N-glycan recognition” (Scientific Reports, 2017) are described below.

The target of the assay is T1, ArtinM (Artocarpus integer, UniProt Q7M1T4).
T1 construct: tetramer
T1 sequence (Q7M1T4 1-149): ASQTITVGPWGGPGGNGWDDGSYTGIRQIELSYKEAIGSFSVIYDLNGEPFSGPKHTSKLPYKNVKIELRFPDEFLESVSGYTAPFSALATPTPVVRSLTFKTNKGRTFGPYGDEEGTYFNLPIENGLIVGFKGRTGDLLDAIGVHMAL
The assay is described as follows: inhibition of lectin precipitation, western blot. As to conditions: 1 mM trimannoside pre-incubated, 4 °C; lysate of HEK cells transfected with CD14 or TLR2; carbohydrate recognition site, competes with glycoprotein N-glycans. It counts as binding. The method, then:
inhibition of lectin precipitation, western blot on […] | CD14 and TLR2 were not detected when the procedure was carried out with […]
(In general: In western blotting, separated proteins are transferred to a membrane and probed.)

For the molecule `OC[C@H]1O[C@H](OC[C@H]2OC(O)[C@@H](O)[C@@H](O[C@H]3O[C@H](CO)[C@@H](O)[C@H](O)[C@@H]3O)[C@@H]2O)[C@@H](O)[C@@H](O)[C@@H]1O` (stereo partly shown) [Manα1-3(Manα1-6)Man], the “inhibition of lectin precipitation, western blot” value was “CD14 and TLR2 were not detected when the procedure was carried out with ArtinM”.
